# Literature values in US20040067267A1, “Process for preparation of cholesterol lowering compositions from garlic” (priority 2002, published 2004).
# What was measured:
# HMG CoA reductase = target: T1, HMG CoA reductase (Homo sapiens, UniProt P04035); details: for lowering of plasma LDL cholesterol levels: alone; for decrease of LDL levels: given along with bile acid binding resin (Bilheimer et al 1983)
# T1 sequence (P04035 1-888): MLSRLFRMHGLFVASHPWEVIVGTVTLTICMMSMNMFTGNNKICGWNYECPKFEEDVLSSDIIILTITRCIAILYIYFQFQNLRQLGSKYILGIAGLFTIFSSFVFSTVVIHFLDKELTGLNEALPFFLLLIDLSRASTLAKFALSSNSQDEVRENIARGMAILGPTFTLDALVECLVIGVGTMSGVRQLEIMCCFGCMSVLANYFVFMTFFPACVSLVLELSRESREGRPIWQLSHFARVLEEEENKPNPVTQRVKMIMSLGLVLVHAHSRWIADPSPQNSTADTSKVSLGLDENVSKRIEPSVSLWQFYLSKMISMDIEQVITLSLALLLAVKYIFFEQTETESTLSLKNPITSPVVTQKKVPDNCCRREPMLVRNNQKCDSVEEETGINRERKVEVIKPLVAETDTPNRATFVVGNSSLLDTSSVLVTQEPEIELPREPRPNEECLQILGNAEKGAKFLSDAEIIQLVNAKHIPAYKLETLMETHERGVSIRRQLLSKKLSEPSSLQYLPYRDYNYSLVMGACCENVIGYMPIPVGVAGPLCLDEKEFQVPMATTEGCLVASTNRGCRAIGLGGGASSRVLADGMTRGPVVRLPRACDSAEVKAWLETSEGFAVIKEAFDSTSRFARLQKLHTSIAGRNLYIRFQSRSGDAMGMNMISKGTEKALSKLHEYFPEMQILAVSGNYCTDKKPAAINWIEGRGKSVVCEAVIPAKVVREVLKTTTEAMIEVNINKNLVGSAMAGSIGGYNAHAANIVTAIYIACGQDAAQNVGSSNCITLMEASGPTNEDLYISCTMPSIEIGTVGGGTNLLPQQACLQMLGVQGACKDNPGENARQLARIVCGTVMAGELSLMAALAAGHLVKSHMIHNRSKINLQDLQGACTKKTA
# [1] = patients with primary hypercholesterolemia (Hoeg et al. 1984)
Compound,"oral LD 50, female (mice)","oral LD 50, male (mice)",lowering of plasma LDL cholesterol levels (HMG CoA reductase),decrease of LDL levels (HMG CoA reductase),reduction of LDL cholesterol [1]
C=CCSSCC=C [diallyldisulfide],130 mg/kg b.wt,145 mg/kg b.wt,,,
CC[C@H](C)C(=O)O[C@H]1CCC=C2C=C[C@H](C)[C@H](CC[C@@H]3C[C@@H](O)CC(=O)O3)[C@H]21 [Compaction],,,30%,50%,
C=CCSCC=C [diallyl sulfide],1805 mg/kg b.wt,2029 mg/kg b.wt,,,
C=CCSC[C@H](N)C(=O)O [s-allyl-L-cysteine],9390 mg/kg b.wt,8890 mg/kg b.wt,,,
mevinolin,,,30%,50%,
NC[C@@H]1O[C@H](O[C@H]2[C@@H](O)[C@H](O[C@@H]3[C@@H](O)[C@H](N)C[C@H](N)[C@H]3O[C@H]3O[C@H](CN)[C@@H](O)[C@H](O)[C@H]3N)O[C@@H]2CO)[C@H](N)[C@@H](O)[C@@H]1O [Neomycin],,,,,15-20%
C=CCS[S+]([O-])CC=C (stereo not shown) [allicin],363 mg/kg b.wt,309 mg/kg b.wt,,,
